From patent publication US11819507B2, “Cholecalciferol sulfate salts and their use for the treatment of vitamin D deficiency” (CFSO GMBH, priority 2015, dated 2023)

Assay: Applying the transdermal formulation of Example 8 to skin; residue on the skin checked by TLC
Type: in vivo
Conditions: about 2 ml of the formulation of Example 8 applied in a thin layer, allowed to penetrate for 4 hours; skin wiped with 96% ethanol cotton pad, extract examined by TLC
Protocol: About 2 ml of the formulation prepared in Example 8 were applied in a thin layer to the skin of a subject and allowed to penetrate for 4 hours. Subsequently, the skin was well wiped using a sterile cotton pad soaked with 96% ethanol. The cotton pad was boiled with additional 96% ethanol and squeezed. The ethanol was evaporated on a rotary evaporator, and a small amount of chloroform-methanol (9:1 Vol./Vol.) mixture was added to the flask.

C=C1CCC(OS(=O)(=O)O)CC1=CC=C1CCCC2(C)C1CCC2C(C)CCCC(C)C.NCCCCC(N)C(=O)O [L-lysine cholecalciferol sulfate]
L-lysine cholecalciferol sulfate remaining on the skin (TLC on silica gel): substantially no
